Experiment [1] deals with chimeric replicon with genotype 4a NS5B. The experiment is described as follows: microbe, parasite or virus in culture. As to conditions: Hepatitis C virus, read-out: 4a chimera 5% FBS EC50. The format is cell-based, HCV genotype 4a.
Experiment [2] relates to chimeric replicon with 2a-J6CF-derived NS5B. The experiment is described as follows: microbe, parasite or virus in culture. The format is cell-based, HCV genotype 2a. As to conditions: Hepatitis C virus, read-out: 2a chimera 5% FBS EC50.
Experiment [3] addresses T1, HCV NS5B polymerase 1a-H77 (Hepatitis C virus genotype 1a, UniProt P27958).
T1 construct: six-histidine tag; made in house; host or cells: E. coli
The experiment is described as follows: biochemical. The arrangement: species or system HCV genotype 1a. As to conditions: enzyme, strain 1a H77; read-out: HCV Polymerase Strain 1a H77 IC50. In short, it runs like this:
(§1)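 Incorporation of [3H]UTP (0.284 μM), alongside 20 μM each CTP and ATP, into RNA copied from a 5 nM 2.1 kb genotype 1b negative-strand template was measured after 3 h at 30° C using purified His-tagged NS5B truncated at residue 570. Product was spermine-precipitated, filtered and scintillation-counted; nonlinear regression gave IC50.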

In experiment [4] the test system is HCV NS5B polymerase 1a-H77-C316Y. The experiment can be described thus: biochemical. As to conditions: ratio of enzyme IC50s, 1a H77-C316Y / 1a H77. Further details: species or system HCV genotype 1a. In short, it runs like this: as §1
The target of experiment [5] is T2, HCV NS5B polymerase 1a-H77-C316Y (Hepatitis C virus genotype 1a, UniProt P27958, C2736Y).
T2 construct: six-histidine tag; made in house; host or cells: E. coli
The experiment can be described thus: biochemical. The arrangement: species or system HCV genotype 1a. In short, it runs like this:
as §1

For experiment [6], the system named is chimeric replicon with genotype 3a NS5B. The experiment is described as follows: microbe, parasite or virus in culture. The experiment is classed as cell-based, HCV genotype 3a. As to conditions: Hepatitis C virus, read-out: 3a chimera 5% FBS EC50.
Experiment [7] addresses T3, HCV NS5B polymerase 1b BK strain (Hepatitis C virus genotype 1b, UniProt P26663).
T3 construct: six-histidine tag; made in house; host or cells: E. coli
The experiment can be described thus: HCV NS5B polymerase enzymatic inhibition assay, strain 1b BK. The experiment is classed as biochemical. As to conditions: enzyme, strain 1b BK; read-out: HCV Polymerase Strain 1b BK IC50. The essentials:
as §1

Experiment [8] relates to HCV 1a-H77 subgenomic replicon. The experiment is described as follows: microbe, parasite or virus in culture. The experiment is classed as cell-based, HCV genotype 1a. As to conditions: Hepatitis C virus, stable replicon. (A replicon is a self-replicating genome or part of one, used to study replication in cells.)
Experiment [9] has as its system chimeric replicon with genotype 2b NS5B. The experiment is described as follows: microbe, parasite or virus in culture. As to conditions: Hepatitis C virus, read-out: 2b chimera 5% FBS EC50. The format is cell-based, HCV genotype 2b.
Experiment [10] has as its system HCV 1b-BB7 subgenomic replicon. The experiment can be described thus: microbe, parasite or virus in culture. The experiment is classed as cell-based, HCV genotype 1b. As to conditions: Hepatitis C virus, stable replicon.
Experiment [11] has as its system HCV 1a-H77 C316Y mutant subgenomic replicon. The experiment is described as follows: Stable replicon cell culture assay (luciferase), 1a-H77-C316Y mutant. As to conditions: for EC50: Hepatitis C virus, read-out: Stable Replicon 1a H77-C316Y 5% FBS EC50; for Stable Replicon Fold Resistance C316Y/1a: ratio of stable replicon EC50s, C316Y / 1a H77. The format is cell-based, HCV genotype 1a.

In experiment [12] the test system is HCV 1a-H77-C316Y transient subgenomic replicon in Huh-7 derived cell line. The experiment is described as follows: microbe, parasite or virus in culture. The format is cell-based, HCV genotype 1a. As to conditions: for EC50: Hepatitis C virus, Huh-7, read-out: Transient Replicon 1a H77-C316Y 5% FBS EC50; for Transient Replicon Fold Resistance C316Y/1a: ratio of transient replicon EC50s, C316Y / 1a H77. The essentials:
(§2)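 Subgenomic replicon RNA (no Neo gene) electroporated into Huh-7-derived cells, plated at 5×10^3 cells/well; a 4 h plate gauged transfection efficiency. Cells exposed to 3-fold compound dilutions (0.5% DMSO) for 4 days at 37° C, then lysed for luciferase readout; EC50 calculated.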

The test system of experiment [13] is HCV 1a-H77 transient subgenomic replicon in Huh-7 derived cell line. The experiment is described as follows: microbe, parasite or virus in culture. The experiment is classed as cell-based, HCV genotype 1a. As to conditions: Hepatitis C virus, Huh-7; transient replicon, 5% FBS; read-out: Transient Replicon 1a H77 5% FBS EC50. In short, it runs like this:
as §2

Where [14] appears, read: 5% FBS, absence of human plasma, read-out: Stable Replicon 1a H77 5% FBS EC50.
The mark [15] stands for this setting: strain 1a H77, 5% FBS + 40% human plasma, read-out: 1a H77 5% FBS + 40% Human Plasma EC50.
Where [16] appears, read: strain 1a H77, 5% FBS, no human plasma, read-out: 1a H77 5% FBS EC50.
Setting [17] is: strain 1a H77, 5% FBS, read-out: 1a H77 5% FBS EC50.
[18] abbreviates: strain 1b BB7, 5% FBS + 40% human plasma, read-out: 1b BB7 5% FBS + 40% Human Plasma EC50.
Where [19] appears, read: strain 1b BB7, 5% FBS, no human plasma, read-out: 1b BB7 5% FBS EC50.
[20] abbreviates: strain 1b BB7, 5% FBS, read-out: 1b BB7 5% FBS EC50.

Where two headings read alike, the source gives them in different places.

T1 sequence (P27958 2421-2990): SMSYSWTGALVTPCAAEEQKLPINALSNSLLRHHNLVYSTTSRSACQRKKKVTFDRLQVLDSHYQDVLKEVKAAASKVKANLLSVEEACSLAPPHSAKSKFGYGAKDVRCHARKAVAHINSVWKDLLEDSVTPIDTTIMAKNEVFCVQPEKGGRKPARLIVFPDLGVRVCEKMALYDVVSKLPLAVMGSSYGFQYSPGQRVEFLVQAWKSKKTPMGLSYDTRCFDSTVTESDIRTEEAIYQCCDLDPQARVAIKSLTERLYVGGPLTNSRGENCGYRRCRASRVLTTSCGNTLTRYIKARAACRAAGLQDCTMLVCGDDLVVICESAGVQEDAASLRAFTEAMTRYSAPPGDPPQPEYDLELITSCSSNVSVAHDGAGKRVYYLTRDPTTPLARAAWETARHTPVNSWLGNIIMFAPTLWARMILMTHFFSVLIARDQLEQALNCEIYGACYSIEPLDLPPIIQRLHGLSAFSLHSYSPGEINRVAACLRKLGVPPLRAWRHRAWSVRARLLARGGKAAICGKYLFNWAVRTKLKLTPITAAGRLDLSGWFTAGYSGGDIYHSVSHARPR
T3 sequence (P26663 2420-2989): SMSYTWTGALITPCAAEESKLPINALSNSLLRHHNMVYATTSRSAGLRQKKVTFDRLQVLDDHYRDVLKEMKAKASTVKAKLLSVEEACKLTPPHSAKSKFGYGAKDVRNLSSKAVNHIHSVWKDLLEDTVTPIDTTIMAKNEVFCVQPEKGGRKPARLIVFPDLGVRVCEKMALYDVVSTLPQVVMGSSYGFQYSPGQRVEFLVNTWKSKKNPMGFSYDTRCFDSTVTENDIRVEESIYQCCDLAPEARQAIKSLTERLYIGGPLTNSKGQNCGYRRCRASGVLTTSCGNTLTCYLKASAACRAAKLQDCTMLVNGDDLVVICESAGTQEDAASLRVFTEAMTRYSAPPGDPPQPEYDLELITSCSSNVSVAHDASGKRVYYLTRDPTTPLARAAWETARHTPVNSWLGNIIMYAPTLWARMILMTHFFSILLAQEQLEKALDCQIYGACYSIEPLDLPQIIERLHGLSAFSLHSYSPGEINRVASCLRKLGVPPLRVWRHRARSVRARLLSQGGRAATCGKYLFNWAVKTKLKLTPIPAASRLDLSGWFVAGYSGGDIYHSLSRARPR
T2 sequence (P27958 2421-2990 C2736Y): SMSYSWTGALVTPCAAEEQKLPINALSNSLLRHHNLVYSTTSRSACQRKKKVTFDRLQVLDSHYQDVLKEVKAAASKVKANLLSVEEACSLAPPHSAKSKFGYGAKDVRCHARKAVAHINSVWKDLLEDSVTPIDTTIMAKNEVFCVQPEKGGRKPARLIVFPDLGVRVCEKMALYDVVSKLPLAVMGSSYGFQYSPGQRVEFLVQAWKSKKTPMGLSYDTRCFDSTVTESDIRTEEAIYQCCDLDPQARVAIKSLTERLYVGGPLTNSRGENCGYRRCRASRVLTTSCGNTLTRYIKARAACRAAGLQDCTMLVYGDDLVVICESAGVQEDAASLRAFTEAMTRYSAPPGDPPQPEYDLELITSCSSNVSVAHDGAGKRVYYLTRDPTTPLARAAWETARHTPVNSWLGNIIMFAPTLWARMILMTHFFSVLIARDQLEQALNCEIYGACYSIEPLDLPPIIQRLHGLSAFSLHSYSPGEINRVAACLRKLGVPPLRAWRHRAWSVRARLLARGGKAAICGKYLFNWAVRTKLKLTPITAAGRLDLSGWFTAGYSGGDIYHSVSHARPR

In the case of `CS(=O)(=O)N(CCc1csc(N)n1)c1cc2oc(-c3ccc(F)cc3)c(-c3ncc[nH]3)c2cc1C1CC1` [Example 97, N-[2-(2-amino-1,3-thiazol-4-yl)ethyl]-N-[5-cyclopropyl-2-(4-fluorophenyl)-3-(1H-imidazol-2-yl)-1-benzofuran-6-yl]methanesulfonamide], the EC50 came to 528 nM in experiment [1]; 595 nM in experiment [2]; 36 nM in [6]; 108 nM in experiment [8] (setting [14]); 721 nM in [8] (setting [15]); 108 nM in [8] (setting [16]). Moreover, the EC50 in experiment [8] (setting [17]) was 108 nM; in experiment [9], 895 nM; in experiment [10] (setting [18]), 644 nM; in [10] (setting [19]), 62 nM; in [10] (setting [20]) it was 62 nM; in experiment [11], 3770 nM. For the same compound, the values for the IC50 in experiment [3], in experiment [5] and in experiment [7] were 6 nM, 549 nM and 39 nM, respectively. Further, the “C316Y/1a Fold Resistance” value in experiment [4] is 92 fold. Moreover, the “Stable Replicon Fold Resistance C316Y/1a” value in [11] came out at 34.9 fold.
`CS(=O)(=O)N(CCCc1nsc(=O)[nH]1)c1cc2oc(-c3ccc(F)cc3)c(-c3ncc[nH]3)c2cc1C1CC1` [Example 178, N-[5-cyclopropyl-2-(4-fluorophenyl)-3-(1H-imidazol-2-yl)-1-benzofuran-6-yl]-N-[3-(5-oxo-4,5-dihydro-1,2,4-thiadiazol-3-yl)propyl]methanesulfonamide]: the EC50 in experiment [1] was 239 nM; in experiment [2] it was 116 nM; in experiment [6], 24.4 nM; in [8] (setting [14]), 54.4 nM; in experiment [8] (setting [15]), 431 nM; in [8] (setting [16]), 54.4 nM. Besides, the EC50 was 54.4 nM in experiment [8] (setting [17]); 91.3 nM in experiment [9]; 274 nM in [10] (setting [18]); 18 nM in [10] (setting [19]); 18 nM in [10] (setting [20]); 544 nM in [11]. Besides, the figures for the IC50 in experiment [3], in [5] and in experiment [7] were 13 nM, 828 nM and 65 nM, respectively. Moreover, the “C316Y/1a Fold Resistance” value in experiment [4] was determined as 64 fold. The “Stable Replicon Fold Resistance C316Y/1a” value in [11] is 10.0 fold.
With `CS(=O)(=O)N(CCCCO)c1cc2oc(-c3ccc(F)cc3)c(-c3noc(=O)[nH]3)c2cc1C1CC1` [Example 185, N-[5-cyclopropyl-2-(4-fluorophenyl)-3-(5-oxo-4,5-dihydro-1,2,4-oxadiazol-3-yl)-1-benzofuran-6-yl]-N-(4-hydroxybutyl)methanesulfonamide], the EC50 was more than 1000 nM in experiment [1]; 1000 nM in experiment [2]; 770 nM in experiment [6]; 1000 nM in experiment [8] (setting [14]); 10000 nM in [8] (setting [15]); 1000 nM in [8] (setting [16]). Moreover, the EC50 in experiment [8] (setting [17]) is 1000 nM; in [9], 1000 nM; in [10] (setting [18]) it was 10000 nM; in [10] (setting [19]) it was 1000 nM; in [10] (setting [20]), 1000 nM; in experiment [11], 10000 nM. Moreover, the values for the IC50 in experiment [3], in [5] and in [7] were 2300 nM, 20000 nM and 9000 nM, respectively. Further, in experiment [4], the “C316Y/1a Fold Resistance” value is on record as 9 fold. Further, in experiment [11], the “Stable Replicon Fold Resistance C316Y/1a” value stood at 10.0 fold.
Regarding `CCOC(=O)CCCN(c1cc2oc(-c3ccc(F)cc3)c(C3=NOCCN3)c2cc1C1CC1)S(C)(=O)=O` [Example 121, ethyl 4-{[5-cyclopropyl-3-(5,6-dihydro-4H-1,2,4-oxadiazin-3-yl)-2-(4-fluorophenyl)-1-benzofuran-6-yl](methylsulfonyl)amino}butanoate], the EC50 in [1] was determined as 988 nM; in [2], 1000 nM; in experiment [6] it was 121 nM; in [8] (setting [14]) it was 38.7 nM; in experiment [8] (setting [15]), 311 nM; in experiment [8] (setting [16]) it was 38.7 nM. Moreover, the EC50 is 38.7 nM in experiment [8] (setting [17]); 1000 nM in experiment [9]; 287 nM in [12]; 28 nM in experiment [13]; 388 nM in [10] (setting [18]); 68 nM in experiment [10] (setting [19]). The EC50 in experiment [10] (setting [20]) was 68 nM. For the same compound, the figures for the IC50 in [3], in experiment [5] and in experiment [7] were 3.5 nM, 40 nM and 55 nM, respectively. In addition, the “C316Y/1a Fold Resistance” value in experiment [4] amounted to 12 fold. Moreover, in [12], the “Transient Replicon Fold Resistance C316Y/1a” value is 10 fold.
Take `CS(=O)(=O)N(CCCC(=O)O)c1cc2oc(-c3ccc(F)cc3)c(C3=NOCN3)c2cc1C1CC1` [Example 157, 4-{[5-cyclopropyl-3-(4,5-dihydro-1,2,4-oxadiazol-3-yl)-2-(4-fluorophenyl)-1-benzofuran-6-yl](methylsulfonyl)amino}butanoic acid]: the EC50 in [1] is more than 1000 nM; in [2] it was 1000 nM; in experiment [6], 108 nM; in experiment [8] (setting [14]) it was 109 nM; in [8] (setting [15]) it was 2790 nM; in experiment [8] (setting [16]), 109 nM. The EC50 amounted to 109 nM in experiment [8] (setting [17]); 1000 nM in experiment [9]; 6890 nM in [12]; 111 nM in [13]; 2460 nM in [10] (setting [18]); 94.2 nM in experiment [10] (setting [19]). The EC50 in experiment [10] (setting [20]) was 94.2 nM. For the same compound, the figures for the IC50 in experiment [3], in [5] and in experiment [7] were 5 nM, 54 nM and 16 nM, respectively. Further, the “C316Y/1a Fold Resistance” value in experiment [4] was determined as 11 fold. For the same compound, the “Transient Replicon Fold Resistance C316Y/1a” value in [12] stood at 62 fold.
In the case of `CS(=O)(=O)N(CCCc1n[nH]c(=O)o1)c1cc2oc(-c3ccc(F)cc3)c(-c3ncc[nH]3)c2cc1C1CC1` [Example 179, N-[5-cyclopropyl-2-(4-fluorophenyl)-3-(1H-imidazol-2-yl)-1-benzofuran-6-yl]-N-[3-(5-oxo-4,5-dihydro-1,3,4-oxadiazol-2-yl)propyl]methanesulfonamide], the EC50 came to 77.8 nM in experiment [1]; 66 nM in experiment [2]; 10.5 nM in experiment [6]; 9.8 nM in [8] (setting [14]); 52 nM in experiment [8] (setting [15]); 9.8 nM in [8] (setting [16]). Besides, the EC50 in [8] (setting [17]) was found to be 9.8 nM; in experiment [9], 84.9 nM; in experiment [10] (setting [18]), 78 nM; in experiment [10] (setting [19]) it was 9 nM; in [10] (setting [20]) it was 9 nM; in [11] it was 686 nM. The IC50 in experiment [3] was 4 nM; in experiment [5], 45 nM; in experiment [7], 25 nM. Besides, in experiment [4], the “C316Y/1a Fold Resistance” value is on record as 11 fold. Besides, the “Stable Replicon Fold Resistance C316Y/1a” value in experiment [11] amounted to 70.0 fold.

What is called EC50 is the concentration needed to bring the measured effect to its halfway point. Usually IC50 stands for the concentration at which inhibition is half-maximal.

Values taken from US20160355530A1, “HEPATITIS C INHIBITORS AND USES THEREOF” (AbbVie Inc., priority 2010, published 2016).
